Test results: patent US9351491B2, “Inhibition and dispersion of biofilms in plants with imidazole-triazole derivatives” (priority 2008, dated 2016)
Where a name gives a salt, the structure may show the parent alone.

What was measured:
[1] = tested on: Xanthomonas strains Xcv 135; assay: Crystal violet biofilm inhibition (attachment) assay on PVC microtiter wells; type: cell-based; conditions: 28° C., 6 hours, static
Description: A Standard Crystal Violet reporter assay is employed to assess the effect of compounds from the 2-amino on the formation of biofilms. Among others, the following strains are tested:
Bacteria are allowed to form biofilms in a multi-well plate in the absence or presence of one or more compounds. Planktonic (or free growing) bacteria are then removed, wells washed vigorously, and crystal violet added. Crystal violet stains the remaining bacteria which, following ethanol solubilization, is quantitated by spectrophotometry (A540). Time-dependent and concentration-dependent analysis of each compound are performed.
Biofilm formation on PVC microtiter wells was accomplished using Xanthomonas strains Xcv 135 (known to infect peppers and tomatoes) and Xcv 5 (known to infect tomatoes but not peppers) as models. The Starting Optical Density (OD at 600 nm) for biofilm attachment assay was 0.55, the temperature for this assay was 28° C., the duration of incubation was 6 hours under, and the assay was static.
Biofilm inhibition results are as follows for screens with Xcv 135. The Xcv 5 strain is tested in the same manner.

[2] = tested on: bacterial spot (caused by the bacterium Xanthomonas euvesicatoria) of pepper, copper-resistant strains; assay: Field test in pepper plants inoculated with Xanthomonas euvesicatoria (bacterial spot); type: in vivo
Description: To test the effects of the triazole derivatives for plant biofilm inhibition activity, the compound of Formula (II)(a)(5)(D) was used as an exemplary compound (the “biofilm inhibitor/disperser” or “BFI” in the text hereinafter of Example 4).
The compound was evaluated under field conditions to determine whether it controls or enhances control of bacterial spot (caused by the bacterium Xanthomonas euvesicatoria) of pepper when applied alone or in tank-mixtures with a copper (Kocide 3000), an antibiotic (GWN-9350, gentamicin), or a putative plant defense activator (Prophyt). Tests were performed April-July 2008 at the North Carolina Agricultural Research Service Sandhills Research Station, Montgomery County.
EXPERIMENTAL DESIGN and TREATMENT APPLICATIONS: Each treatment consisted of two 7-plant rows running east-west replicated in a four-block completely randomized design. Each 7-plant row was 10.5 ft×2 ft. This area was used to calculate the quantity of spray material extrapolated for a per acre basis. Plants of bell pepper cultivar ‘X3R-Camelot’ were transplanted to the field on Apr. 24, 2008. On May 6, two plants in the south row of each plot of each treatment were inoculated with a suspension of copper-resistant strains of the bacterial pathogen. These plants were destined to serve as the inoculum source for each plot. Each of the spray test materials was mixed in 1.5 liters of water and applied using a backpack sprayer by making a single pass on each side of the plant row. Treatments were applied weekly starting immediately after the plants had been inoculated May 6 followed by 7 additional weekly sprays for a total of 8 applications through June 24.
DATA: Ratings of foliar disease were started May 22, when symptoms were observed on the inoculated plants and continued weekly through June 25. Disease was most severe on the inoculated plants and then spread to the non-inoculated plants. Data from these two groups (inoculated plants and the non-inoculated) were evaluated separately. The results are expressed as disease progress over time using the calculated Area Under the Disease Progress Curve (AUDPC). Two fruit harvests were done; July 1 and 8. Because there had been plant loss in some plots, the number of plants per plot was counted and yields (number of fruit and weight) were calculated and are reported on a per plant basis per treatment.

[3] = tested on: Candida albicans biofilms; assay: Inhibition of C. albicans biofilm formation, crystal violet reporter assay; type: cell-based; conditions: 24 h, read-out: inhibition of C. albicans biofilm formation
Description: It was screened at 100 μM for its ability to inhibit to the formation of C. albicans biofilms using a crystal violet reporter assay. Briefly, biofilms were allowed to form for 24 hours in a 96-well microtiter plate in the absence or presence of 100 μM of the compound. The wells were subsequently washed thoroughly with water to remove free-floating and loosely adherent fungus, and then treated with crystal violet. Crystal violet stains the remaining surface attached fungus (i.e. the biofilm), which following solublization, can be quantified by spectrophotometry (A540).
Each member of the pilot library was assayed at 100 μM for its ability to inhibit the formation of C. albicans biofilms using the crystal violet reporter assay.
Procedure to Determine the Inhibitory Effect of Test Compounds on C. albicans, C. neoformans and a Mixed S. epidermidis/C. albicans Biofilm Formation:
Inhibition assays were performed by taking an overnight culture of yeast or yeast/bacteria strain and subculturing it at an OD600 of 0.05 into YPD (Yeast extract, peptone and dextrose (BD 242820)) media for the yeast alone or tryptic soy broth for the S. epidermidis/C. albicans. […] Biofilm inhibition was quantitated by measuring the OD540 of each well in which a negative control lane wherein no biofilm was formed served as a background and was subtracted out.

C. albicans = assay: Growth curve / colony count analysis, C. albicans; type: cell-based, Candida albicans; conditions: 100 μM (data not shown)
[4] = two fruit harvests, per plant basis

Row | Structure (SMILES) | % Inhibition at 20 μM (vs. Xcv 135) [1] [%] | Mean AUDPC for entire plot ([2]; foliar disease, 0-9 rating scale, AUDPC, entire plot, 8 weekly sprays) [a] | Mean AUDPC for inoculated plants ([2]; foliar disease, 0-9 rating scale, Area Under the Disease Progress Curve, inoculated bell pepper plants, 8 weekly sprays, rate/acre as in treatment line) [b] | Mean fruit yield (lb)/plant [2, 4] [b lb] | Mean number pepper fruit/plant [2, 4] [b] | inhibition at 100 µM [3] [%] | growth curves: anti-biofilm activity fungicidal or not (C. albicans)
1 | Nc1nc(CCc2cn(CCc3c[nH]c4ccccc34)nn2)c[nH]1 [Formula (II)(i)(a)(2)(J)] | 0 | – | – | – | – | – | –
2 | C/C(=C\c1ccccc1)Cn1cc(CCCCCc2c[nH]c(N)n2)nn1 [Formula (II)(a)(5)(D), 4-{5-[1-(2-Methyl-3-phenyl-allyl)-1H-[1,2,3]triazol-4-yl]-pentyl}-1H-imidazol-2-ylamine hydrochloride] | 86 | 42 | 113 | 1.46 | 4.8 | 12 | non-fungicidal
3 | C/C(=C\c1ccccc1)Cn1cc(CCCCCCc2c[nH]c(N)n2)nn1 [Formula (II)(a)(6)(D), 4-{6-[1-(2-Methyl-3-phenyl-allyl)-1H-[1,2,3]triazol-4-yl]-hexyl}-1H-imidazol-2-ylamine hydrochloride] | 85 | – | – | – | – | – | –
